{
  "source": "patent US20030134865A1",
  "about": "“Modulation of histone deacetylase” (priority 2003, published 2003)",
  "key": {"[1]": {"system": "GM-CSF release, A549 cells", "experiment": "GM-CSF release from A549 cells (ELISA)", "protocol": "GM-CSF ELISA: Determination of GM-CSF expression was measured by sandwich ELISA (Pharmingen, Lugano, Switzerland) according to the manufacturer's instructions."}, "HAT activity": {"system": "HAT activity", "experiment": "Direct effect on HAT activity", "format": "biochemical", "settings": "IBMX 500 μM, rolipram 10 μM, CGS-15943 10 μM"}, "HDAC activity": {"system": "HDAC activity", "experiment": "Direct effect on HDAC activity of nuclear proteins from untreated A549 cells", "format": "biochemical", "settings": "for effect on theophylline-induced increased HDAC activity: inhibitor 1 μM", "description": "FIG. 13. […] (a) Direct effect of the PDE4 inhibitor rolipram (10 μM) and the adenosine receptor antagonist CGS-15943 (10 μM) on HDAC activity. […] (b) Direct effect of the MEK inhibitor PD089159 (1 μM) and the p38 MAPK inhibitor SB203580 on theophylline induced HDAC activity."}, "[2]": {"system": "histone deacetylase (HDAC) activity, A549 cells", "experiment": "Histone deacetylation activity in total cellular extracts of treated A549 cells", "settings": "6 hrs", "protocol": "(B) Effect of Trichostatin A (TSA) on histone deacetylase activity and histone H4 acetylation. Cells were treated with increasing concentrations of TSA for 6 hrs before total cellular proteins were isolated and analysed for deacetylase activity and also histone acetylation by Western blotting using an anti-pan acetylated histone H4 antibody.\nEffect of theophylline on histone deacetylase (HDAC) activity in A549 cells. (a) Cells were stimulated with LPS (3 ng/ml) for 24 hours in the presence or absence of theophylline (10^−5 M) or Dex (10^−6 M). Total cellular proteins were extracted and histone deacetylase activity measured. (b) Direct effect of theophylline on HDAC activity. […] Results are expressed as mean±SEM (n=3-5, *p<0.05, **p<0.01)."}, "[3]": {"system": "SLPI production, A549 cells", "experiment": "SLPI production by A549 cells (ELISA)", "format": "cell-based", "description": "A549 cells were grown to 50% confluence in Dulbecco's modified medium (DMEM) containing 10% fetal calf serum (FCS) before incubation for 48-72 hr in serura-free media.\nDetermination of GM-CSF expression was measured by sandwich ELISA (Pharmingen, Lugano, Switzerland) according to the manufacturer's instructions. For immunoassay of SLPI and acetylated histone, polystyrene microtitre plates were coated overnight at 4° C. with sample diluted with hydroxy carbonate (pH 9.6). Plates were blocked for 2 hr with 5 % ovalbumin in PBS. Antibodies against SLPI (R&D Systems Europe, Abingdon, UK), K5, K8, K12 and K16 acetylated histone 4 (Serotec, Oxford, UK) were diluted 1:300-1:1000 and added to each plate. After 1 hr at room temperature plates were washed sequentially with 0.1% Tween20-PBS and incubated with HRP conjugated goat anti-rabbit antibody (DAKO, Cambridge, UK) for 1 hr. Detection was performed with ABTS following Pharmingen instructions. Recombinant human SLPI (R&D Systems Europe) was used as a standard. As a standard for acetylated histone, crude extracted histone from A549 cells incubated with TSA (100 ng/ml) for 6 hr was used, and the value was calculated in units, where 1 unit is equivalent to the absorbance of 50 ng of TSA-treated hyperacetylated histone after subtraction of BSA-induced histone acetylation."}, "[4]": {"system": "histone acetylation, A549 cells", "experiment": "Histone acetylation, [3H]-acetate incorporation in whole A549 cells", "format": "cell-based", "text": "Histones were isolated and separated by SDS-PAGE and [^3H]-acetate incorporated histones were counted and normalised to protein level. […] Data represents mean±SEM of 3 independent experiments. **p<0.01."}, "[5]": {"system": "p65-associated histone acetylation", "experiment": "p65-immunoprecipitated histone acetylation (IP-HAT assay)", "format": "cell-based", "settings": "IL-1β stimulation", "protocol": "Total cellular proteins were isolated and p65 associated proteins immunoprecipitated under stringent conditions (see methods). The associated histone acetylation activity was measured following incubation of the p65-IP extract with 10 μg free core histones and 0.25 mCi of ^3H-acetyl CoA for 45 minutes.\nHistone acetylation experiments were performed as in (A) in the presence of TSA (100 ng/ml).\nExtracts were prepared using 100 μl of stringent immunoprecipitation (IP) buffer (50 mM Tris-HCl, pH 8.0, 150 mM NaCl, 1.0% triton X-100, 0.5% NP-40, 0.1% SDS, 0.5% deoxycholate, complete protease inhibitor cocktail (Boehringer-Mannheim)) or mild IP buffer (10 mM Tris-HCl, pH 8.0, 150 mM NaCl, 0.5% NP-40, complete protease inhibitor cocktail (Boehringer-Mannheim)). […] After microcentrifugation, 20 μl of A/G agarose conjugated with 5 μg of antibody were used to precipitate CBP, PCAF, GR or p65 overnight at 4° C. with rotation.\nImmune complexes with resin were resuspended in 150 μl of HAT buffer (50 mM Tris-HCl, pH 8.0, 10% glycerol, 1 mM dithiothreitol, 0.1 mM EDTA, complete protease inhibitor cocktail). Typically, 20 μl of free core histone solution extracted from A549 cells (final amount 10 μg) and 30 μl of immunoprecipitate were incubated. Reactions were initiated by the addition of 0.25 mCi of [^3H] acetyl-CoA (5 Ci/mmol)(Amersham) and performed for 45 min at 30° C."}, "[6]": {"system": "histone H4 lysines K5, K8, K12, K16", "experiment": "Immunocytochemical staining for acetylated histone H4 lysine residues", "format": "cell-based", "settings": "6 hr", "description": "Immunocytochemical staining for specific histone H4 acetylated lysine residues. […] Results are representative of 4 independent experiments.\nCells were washed with Hanks solution, and air-dried for 30 min at RT. Cells were then fixed in ice-cold acetone-methanol (50/50, w/w) (−20° C.) for 10 min. Slides were air dried and incubated with blocking buffer (20% normal swine serum in PBS, 0.1% saponin)(Dako) for 20 mmn followed by 1 hr incubation with primary antibody solution (PBS, 0.1% saponin, 1% BSA). Antibodies against pan-acetylated H4, H4-K5, H4-K8, H4-K12 and H4-K16 (Serotec) were used at 1:100 to 1:300 dilution. Slides were washed twice and incubated with biotinylated swine anti-rabbit IgG (Dako)(1:200) for 45 min. Slides were washed again before incubation with fluorescein isothiocyante-conjugated streptavidine (1:100) for 45 min. The slides were washed twice more before counterstaining with 20% haematoxyline, and mounting. Stained cells were observed by confocal microscopy. Confocal scanning laser microscopy images were collected with a Leica confocal microscope, equipped with a 488/514 nm dual band argon ion laser. An oil-immersion objective was used and images were collected using TCSNT software."}},
  "note": "Several values for one entry are separate records, joined by “and”; a condition that tells them apart may be missing. Equal entries are not always repeated.",
  "data": [
    {"compound": "OO", "note": "[H2O2]", "values": [
      {"measurement": "GM-CSF release, IL-1β plus H2O2", "setting": "[1]; A549 cells", "value": "2054 ± 342", "unit": "pg/mL"}
    ]},
    {"compound": "CC(C)Cn1c(=O)n(C)c(=O)c2[nH]cnc21", "note": "[IBMX]", "values": [
      {"measurement": "direct effect on HAT activity", "setting": "HAT activity", "value": "no direct effect"},
      {"measurement": "direct effect on HDAC activity", "setting": "HDAC activity; nuclear extracts, IBMX 500 μM, rolipram 10 μM, CGS-15943 10 μM", "value": "no direct effect"}
    ]},
    {"compound": "COc1cccc(-c2cc(=O)c3ccccc3o2)c1N", "note": "[PD089059]", "values": [
      {"measurement": "effect on theophylline-induced increased HDAC activity", "setting": "HDAC activity", "value": "failed to have any effect"}
    ]},
    {"compound": "C[S+]([O-])c1ccc(-c2nc(-c3ccncc3)c(-c3ccc(F)cc3)[nH]2)cc1", "note": "(centres unmarked) [SB203580]", "values": [
      {"measurement": "effect on theophylline-induced increased HDAC activity", "setting": "HDAC activity", "value": "significantly inhibited"}
    ]},
    {"compound": "CC(/C=C/C(=O)NO)=C\\[C@@H](C)C(=O)c1ccc(N(C)C)cc1", "note": "[TSA, trichostatin A]", "values": [
      {"measurement": "IC50, decrease in HDAC activity", "setting": "[2]; A549 cells", "value": 1.1, "unit": "ng/mL"},
      {"measurement": "HDAC activity in A549 cells", "setting": "[2]; TSA, increasing concentrations, decrease from 112±21", "value": "11±3", "unit": "dpm/ng protein"},
      {"measurement": "IL-1β-induced GM-CSF release", "setting": "[1]; IL-1β 1 ng/ml plus TSA 1 ng/ml, versus 157±6 without TSA", "value": "233 ± 12", "unit": "ng/mL"},
      {"measurement": "effect of TSA on dexamethasone (10^−6 M) suppression of GM-CSF release", "setting": "[1]; IL-1β plus H2O2", "value": "unable to block"},
      {"measurement": "effect of TSA on suppression of GM-CSF release by combined treatment", "setting": "[1]; IL-1β plus H2O2", "value": "blocked"},
      {"measurement": "effect of TSA pre-treatment on repression of GM-CSF release by combined treatment", "setting": "[1]; IL-1β-stimulated", "value": "blocked"},
      {"measurement": "GM-CSF release in the presence of TSA", "setting": "[1]; IL-1β-stimulated, with or without dexamethasone 10^−6 M", "value": "969 ± 84", "unit": "pg/mL"},
      {"measurement": "SLPI production", "setting": "[3]; IL-1β 1 ng/ml after pretreatment with TSA 1 ng/ml, versus 6.0±0.5", "value": "8.2 ± 0.3", "unit": "ng/mL"},
      {"measurement": "basal histone acetylation with TSA", "setting": "[4]; TSA 1 ng/ml", "value": "162±21", "unit": "dpm/μg protein"},
      {"measurement": "dexamethasone-induced histone acetylation with TSA", "setting": "[4]; TSA 1 ng/ml, versus 71±9", "value": "984±50", "unit": "dpm/μg protein"},
      {"measurement": "IL-1β-stimulated histone acetylation with TSA", "setting": "[4]; TSA 1 ng/ml, versus 137±15", "value": "1543±143", "unit": "dpm/μg protein"},
      {"measurement": "IL-1β plus dexamethasone (10^−10 M)-stimulated histone acetylation with TSA", "setting": "[4]; TSA 100 ng/ml, versus 37±5", "value": "435±28", "unit": "dpm/μg protein"},
      {"measurement": "IL-1β-stimulated histone acetylation with TSA", "setting": "[4]; TSA 100 ng/ml, versus 71±9", "value": "1543±143", "unit": "dpm/μg protein"}
    ]},
    {"compound": "IL-1β: interleukin used to stimulate A549 cells (1 ng/ml)", "values": [
      {"measurement": "IL-1β-stimulated GM-CSF release", "setting": "[1]; A549 cells", "value": "714 ± 94", "unit": "pg/mL"},
      {"measurement": "increase in GM-CSF release", "setting": "[1]; IL-1β 1 ng/ml", "value": 30, "unit": "fold"},
      {"measurement": "GM-CSF within the culture supernatant", "setting": "[1]; IL-1β 1 ng/ml, 6 hr, untreated cells 30±10", "value": "157 ± 6", "unit": "ng/mL"},
      {"measurement": "increase of p65-immunoprecipitated histone acetylation", "setting": "[5]", "value": "9-10 fold"},
      {"measurement": "SLPI production", "setting": "[3]; IL-1β 1 ng/ml, versus 1.2±0.3 control", "value": "6.0 ± 0.5", "unit": "ng/mL"},
      {"measurement": "histone acetylation, IL-1β alone", "setting": "[4]; IL-1β 1 ng/ml, whole cell incorporation", "value": "137±15 dpm/μg protein and 71±9 dpm/μg protein"},
      {"measurement": "histone acetylation 30 min after IL-1β-stimulation", "setting": "[4]; versus 18±4", "value": "41±6", "unit": "dpm/μg protein"},
      {"measurement": "increase in histone acetylation", "setting": "[4]; whole cell", "value": "4-5 fold and 4 fold"},
      {"measurement": "acetylated histone H4 K8", "setting": "[6]", "value": "42±15", "unit": "% positive nuclei"},
      {"measurement": "acetylated histone H4 K12", "setting": "[6]", "value": "37±4", "unit": "% positive nuclei"}
    ]},
    {"compound": "lipopolysaccharide [LPS]", "values": [
      {"measurement": "reduction of total cell HDAC activity", "setting": "[2]; LPS", "value": 30, "unit": "%"}
    ]}
  ]
}
